How the values were obtained:
[1] = tested on: Spontaneously Hypertensive Rats (SHR); test: Systemic blood pressure of anesthetized Spontaneously Hypertensive Rats (i.v. bolus or p.o. intra stomach); type: in vivo, rat
Procedure: Spontaneously Hypertensive Rats, (Harlan USA) 290-330 gr weight, were anaesthetized with 100-120 mg/kg Inactin in one single bolus injection i.p. The chest was shaven, and animal was secured in supine position. Anaesthetized rats were subject to tracheotomy with 18G catheter. The left femoral vein was cannulated for drug administration and infusion.
For measurement of hemodynamic parameters a cannula was inserted retrogradely into the left carotid artery. The tip of the catheter was positioned close to the origin of the subclavian artery. The catheter was connected to a blood pressure measurement system (BioPac MP100 workstation, BioPac System inc.). ECG was recorded by BioPac MP100 workstation. The information was saved electronically.
During the experiment 1 ml/h of Hartmann's solution was infused i.v.
Alternatively an 80-125 mg/Kg of MCT-based formulation was injected p.o. intra stomach.

[2] = tested on: cultured SV40 transformed cat iris sphincter smooth muscle (SV-CISM-2); conditions: WO 01/39766, cited from earlier work; for elevation of cGMP levels in vitro: SV-CISM-2 cells; for ability to elevate cGMP levels in cultured smooth muscle cells: comparison of the two compounds
[3] = tested on: Cat iris sphincter smooth muscle (SV-CISM-2) cells; test: cGMP assay (RIA) in cultured smooth muscle cells in presence of IBMX; type: cell-based; conditions: for cGMP formed % of control / cGMP formed: IBMX present; for cGMP formed: mean±SEM
Procedure: Cat iris sphincter smooth muscle (SV-CISM-2) cells were maintained in Dulbecco's modified Eagle medium (DMEM), supplemented with 10% fetal calf serum (FCS) and 50 μg/ml gentamicin (culture medium) as described by Ding et al. 1999. (Life Sci. Vol: 64 pp. 161-174) To initiate subculture, confluent SV-CISM-2 cells were washed with Ca^2+-Mg^2+ free Dulbecco's phosphate buffered salt solution (PBS) and treated with 0.05% trypsin in 0.5 mM EDTA for 3 minutes at 37° C. This was followed by addition of culture medium, and the cell suspension was centrifuged at 200 g for 5 minutes. The pelleted cells were suspended in culture medium and seeded in 6-well plates for the cGMP assay. Confluent cells, in 6-well plates were washed once with DMEM and incubated in 2 ml DMEM for 15 minutes at 37° C. IBMX (0.1 mM) was added and incubated for additional 10 minutes. The tested agent was then added and incubations continued for 10 minutes. Anantin (1 μM) or L-NAME (0.1 mM) were added along with IBMX, 10 minutes prior to addition of the tested compound. Reactions were stopped by replacing the medium with 1 ml ice-cold 5% trichloroacetic acid (TCA) (W/V). The obtained samples were homogenized, centrifuged and the supernatants were extracted with anhydrous diethylether. A 100 μl portion of the supernatant from each sample was taken; and after appropriate dilutions cGMP was assayed by radioimmunoassay RIA as described by the aforementioned Ding et al. 1999. Protein content was determinate by the method of Lowry with bovine serum albumin as standard as described in the aforementioned Ding et al. 1999. The data are presented as mean±SEM of three separate experiments with triplicate incubations for each data point.

Male Sprague-Dawley rats = test: Systemic blood pressure and ECG of normotensive anesthetized rats, i.v. bolus injection; type: in vivo
Procedure: Male Sprague-Dawley rats, weighing 250-350 grams were anaesthetized with mixture of Ketamine (90 mg/Kg body weight) and Xylazine (10 mg/Kg body weight) in a single bolus injection. The rats' chest was shaven; and the rats were secured in supine position. Anaesthetized rats were intubated with 18G catheter, connected to a ventilator [Harvard Apparatus] and ventilated with a room air (volume: 2 ml, rate: 70 per min). The left femoral vein was cannulated for drug administration, which is standardized to injections of 0.2 ml/100 grams body weight over a period of 0.5-1 minutes.
For measurement of hemodynamic parameters [blood pressure (BP), heart rate (HR)] a cannula was inserted retrogradely into the left carotid artery. The tip of the catheter was positioned close to the origin of the subclavian artery.
For continuous monitoring of blood pressure (systolic and diastolic pressure) and heart rate, the catheter was connected to a pressure transducer [Grass instrument co., Quincy, Mass. USA]. To monitor the ECG (electrocardiogram): two electrodes were connected to the animal's arms and one electrode was connected to its left leg. The monitoring system was calibrated at the beginning of each experiment. Recording all the steps of the calibration. ECG and hemodynamic parameters were recorded continuously during the whole experiment.
Monitoring rate (speed of paper) was at 5 mm/sec. At different times (stabilization, after injections, blood pressure changes, etc.,) the monitoring rate was changed to 25 mm/sec. In addition routinely, every 5 minutes the monitoring rate was changed to 25 mm/sec. for 15 sec. ECG recordings were obtained at the same times as hemodynamic measurements.
The test compound was administered by bolus injection intravenously at different doses (2,4,6,8 mg/Kg body weight). Each dose was administrated twice in the same manner. The second dose was given after the hemodynamic parameters were recovered (or stabilized) following the first injection.

[4] = 20 mg/Kg body weight i.v. bolus
[5] = 20 mg/Kg body weight i.v. bolus, 30 minutes after injection
[6] = oral administration, 80 or 125 mg/Kg
[7] = 4 mg/Kg body weight, single dose
[8] = 8 mg/Kg body weight i.v. bolus, 30 minutes after first injection, FIG. 1A
[9] = 8 mg/Kg body weight i.v. bolus, 30 minutes after first injection, FIG. 1B
[10] = additional (second) bolus injection 8 mg/Kg, after 30 minutes

C1=COC2(CC1)CCCCO2 (stereo not shown) [1,7-dioxaspiro[5.5]undec-2-ene]
reduction in diastolic blood pressure (range) [1, 4]: 20-33%
reduction in systolic blood pressure (range) [1, 5]: 18-28%
duration of effect ([1]; 20 mg/Kg i.v. bolus): about 30 minutes
time of maximal effect after the injection ([1]; 20 mg/Kg i.v. bolus): 35 to 55 min

C1CCC2(CCCCO2)OC1 [1,7-dioxaspiro[5.5]undecane]
elevation of cGMP levels in vitro [2]: elevate cGMP levels
ability to elevate cGMP levels in cultured smooth muscle cells [2]: comparable ability to elevate cGMP levels
reduction in diastolic blood pressure (range) [1, 4]: 15-28%
reduction in systolic blood pressure (range) [1, 5]: 20-30%
duration of effect ([1]; 20 mg/Kg i.v. bolus): ≥ 90 min
time of maximal effect after the injection ([1]; 20 mg/Kg i.v. bolus): 110 to 120 min
reduction in systolic blood pressure (range) ([1]; oral administration, 80 mg/Kg body weight, after 150 minutes): 15-28%
reduction in systolic blood pressure (range) ([1]; oral administration, 80 mg/Kg, after 150 minutes, stated under FIG. 5B (diastolic blood pressure)): 20-30%
reduction in systolic blood pressure (range) ([1]; oral administration, 125 mg/Kg, 150 minutes post injection): 30-45%
reduction in systolic blood pressure (range) ([1]; oral administration, 125 mg/Kg, after 150 minutes, stated under FIG. 5B (diastolic blood pressure)): 40-53%
duration of effect [1, 6]: about an hour
time of maximal effect after the injection [1, 6]: 150 to 220 min
cGMP formed % of control ([3]; 0.1 μM & Anantin (1 μM)): 253 % of control
cGMP formed ([3]; 0.1 μM & Anantin (1 μM)): 1.32 ± 0.1 pmol/mg protein/10 min
cGMP formed % of control ([3]; 0.1 μM & L-NAME (100 μM)): 182 % of control
cGMP formed ([3]; 0.1 μM & L-NAME (100 μM)): 0.94 ± 0.15 pmol/mg protein/10 min
cGMP formed % of control ([3]; 0.1 μM): 236 % of control
cGMP formed ([3]; 0.1 μM): 1.23 ± 0.1 pmol/mg protein/10 min
increase of cGMP concentration ([3]; 0.1 μM, versus control): 2.36 times
effect on systemic blood pressure (Male Sprague-Dawley rats; 2 mg/Kg body weight, single and double dose): no effect
hypotensive effect after second injection (Male Sprague-Dawley rats; 4 mg/Kg body weight, second injection of the same dose): more pronounced
duration of hypotensive effect (Male Sprague-Dawley rats; [7]): about 15 minutes
effect on systemic blood pressure (Male Sprague-Dawley rats; [7]): mild hypotensive effect
reduction in systolic blood pressure (average) (Male Sprague-Dawley rats; [8]): 18.1%
reduction in systolic blood pressure (range) (Male Sprague-Dawley rats; [8]): 10-30%
reduction in diastolic blood pressure (average) (Male Sprague-Dawley rats; [9]): 20.5%
reduction in diastolic blood pressure (range) (Male Sprague-Dawley rats; [9]): 7-32%
reduction in diastolic blood pressure (average) (Male Sprague-Dawley rats; [10]): 36.5%
reduction in diastolic blood pressure (range) (Male Sprague-Dawley rats; [10]): 15-53%
reduction in systolic blood pressure (average) (Male Sprague-Dawley rats; [10]): 28.3%
reduction in systolic blood pressure (range) (Male Sprague-Dawley rats; [10]): 15-42%
effect on heart contractility (ECG monitoring) (Male Sprague-Dawley rats; single and double dosage of 2-8 mg/Kg body weight i.v. bolus): no effect

C/C=C/C=C/CCCCCCCO [E,E-8,10-Dodecadienol]
elevation of cGMP levels in vitro [2]: elevate cGMP levels

COC(=O)[C@@H](N)CCCNC(=N)N[N+](=O)[O-] [L-NAME, N^G-nitro-L-arginine methyl ester, reference compound]
effect on 1,7-dioxaspiro[5.5]undecane-stimulated cGMP formation ([3]; tested together with 1,7-dioxaspiro[5.5]undecane 0.1 μM, Anantin 1 μM, L-NAME 100 μM): attenuated

CCCCCC/C=C\CCCCCC=O [Z-7-Tetradecenal]
elevation of cGMP levels in vitro [2]: elevate cGMP levels

CCCC/C=C\CCCCCCCCCCOC(C)=O [Z-11-Hexadecenyl-Acetate]
elevation of cGMP levels in vitro [2]: elevate cGMP levels

CCCC/C=C\CCCCCCCCCCCC=O [Z-13-octadecenal, reference compound]
elevation of cGMP levels in vitro [2]: elevate cGMP levels
ability to elevate cGMP levels in cultured smooth muscle cells [2]: comparable ability to elevate cGMP levels
effect on blood pressure (Male Sprague-Dawley rats; 4 mg/Kg body weight bolus, two animals, single and double dose): no reduction
effect on blood pressure (Male Sprague-Dawley rats; 8 mg/Kg body weight bolus injection, five animals, FIG. 2): uncontrolled reduction in blood pressure in three out of five animals tested
response of systemic blood pressure in the two surviving animals (Male Sprague-Dawley rats; 8 mg/Kg body weight, both injections): minimal or no response
toxicity of intravenous administration (mortality) (Male Sprague-Dawley rats; intravenous administration, five animals): death of three out of five animals tested

From patent US20050272808A1, “Compositions and methods for the treatment of hypertension” (priority 2004, published 2005)
